Assay results as given in publication PMC5582420, “Hirsutine, an Indole Alkaloid of Uncaria rhynchophylla, Inhibits Late Step in Dengue Virus Lifecycle” (Frontiers in Microbiology, 2017).
pEC50: −log10 of the molar value.

Legend:
DENV-1 (02-20 strain) [1] = assay: Plaque assay, EC50 against DENV-1 (fourth screening); type: cell-based, Dengue virus; settings: compounds; for pEC50: Dengue virus, DENV1, against DENV-1, plaque assay, Reed and Muench method; for SI: selectivity index from CC50 and EC50
MTT cytotoxicity assay = type: cell-based; settings: human, compounds, A549 cells, 3-day incubation
Procedure: Human lung carcinoma cells (A549) and baby hamster kidney cells (BHK-21) were maintained in Eagle’s minimum essential medium (EMEM; Life Technologies, Carlsbad, CA, United States) supplemented with 10% fetal bovine serum (FBS; JR Scientific, Woodland, CA, United States), penicillin, and streptomycin sulfate (Nacalai Tesque, Kyoto, Japan) at 37°C with 5% CO2. Hybridoma-producing anti-E antibody (HB-112) was maintained in RPMI 1640 medium (Life Technologies, Carlsbad, CA, United States) supplemented with 10% FBS and antibiotics at 37°C with 5% CO2.
Cell viability was assessed by 3-(4,5-dimethylthiazol-2-yl)-2,5-diphenyltetrazolium bromide (MTT) assay. A549 cells were cultured in a 96-well plate with the selected compound (0–10 μM) or extract (0–100 μg/mL). After a 3-day incubation, 30 μL of 0.5% MTT solution was added to each well. After incubation for 3 h, the supernatant was replaced with 100 μL of methanol with 1% Triton X-100, and then vortexed to dissolve the formazan. Absorbance at 565 nm and reference at 655 nm were measured using a microplate reader (Berthold Technologies, Bad Wildbad, Germany). The half-maximal cytotoxicity concentration (CC50) was calculated using the Reed and Muench method ([Reed and Muench, 1938]).

DENV-1 (02-20 strain) [2] = assay: Virus titer by plaque assay in infected A549 cells, DENV-1; type: cell-based, Dengue virus; settings: 10 μM, MOI 0.01, supernatant 72 hpi
Procedure: (§1) The viruses used in this study included DENV-1 (02-20 strain) ([Tajima et al., 2006]), DENV-2 (16681 strain), DENV-3 (09-59 strain), and DENV-4 (09-48 strain). The strains were cultured in Vero cells, and stored at -80°C. Dengue virus titer was determined by plaque assay as summarized below.
(§2) Baby hamster kidney-21 cells were cultured in a 12-well plate and infected with serial dilutions of virus suspension, then incubated at 37°C for 1 h. At 1 hpi, cells were incubated in EMEM containing 2% FBS and 1% methylcellulose. After 5 days of incubation, the cells were fixed with paraformaldehyde and stained with methylene blue. Virus titer was calculated as plaque-forming units (PFU)/mL. The half-maximal effective concentration (EC50) against each virus was calculated using the Reed and Muench method.
(§3) FIGURE 1 Hirsutine inhibits replication of dengue virus serotypes DENV-1–4. (A) Structural formula of hirsutine. (B) Hirsutine inhibits viral replication of all four serotypes. A549 cells were infected with DENV-1–4 at a multiplicity of infection (MOI) of 0.01 in the presence of 10 μM hirsutine. Cell culture supernatants were collected 72 hpi, and viral titers were determined by plaque assay. All data were normalized to their control (0 μM of hirsutine).

DENV-2 (16681 strain) = assay: Virus titer by plaque assay in infected A549 cells, DENV-2; type: cell-based, Dengue virus; settings: 10 μM, MOI 0.01, supernatant 72 hpi
Procedure: as §1, §2, §3

DENV-3 (09-59 strain) = assay: Virus titer by plaque assay in infected A549 cells, DENV-3; type: cell-based, Dengue virus; settings: 10 μM, MOI 0.01, supernatant 72 hpi
Procedure: as §1, §2, §3

DENV-4 (09-48 strain) = assay: Virus titer by plaque assay in infected A549 cells, DENV-4; type: cell-based, Dengue virus; settings: 10 μM, MOI 0.01, supernatant 72 hpi
Procedure: as §1, §2, §3

DENV-1 [3] = assay: Time-of-drug-addition assay; type: cell-based, Dengue virus; settings: 10 μM added at 0, 2, 4, 6, 8, 12, 18 hpi; A549, MOI 1.0; titer at 24 hpi
Procedure: Next, the cells were rinsed twice with phosphate-buffered saline, and fresh medium was added. At 0, 2, 4, 6, 8, 12, and 18 hpi, hirsutine at a final concentration of 10 μM was added to the infected cells. At 24 hpi, the cell culture supernatant was collected, and viral titer was assessed by plaque assay.
(§4) FIGURE 2 Hirsutine inhibits the late stage of the dengue virus lifecycle. (A) Time-of-drug-addition assay. Hirsutine (10 μM) was added at 0, 2, 4, 6, 8, 12, and 18 h post-DENV-1 infection. After 24 h, virus titers in the culture supernatant were analyzed by plaque assay. (B) Time-of-drug-elimination assay. Hirsutine (10 μM) was treated for 0–2, 0–4, and 0–6 h post-DENV-1 infection. After 24 h, virus titers in the culture supernatant were analyzed by plaque assay. ^∗p < 0.05. […] DMSO, dimethyl sulfoxide; hpi, hours post-infection; and PFU, plaque-forming units.

DENV-1 [4] = assay: Time-of-drug-elimination assay; type: cell-based, Dengue virus; settings: 10 μM, A549, MOI 1.0, titer at 24 hpi
Procedure: Next, the cells were rinsed with phosphate-buffered saline twice, and fresh medium containing 10 μM hirsutine was added. At 2, 4, and 6 hpi, the cells were rinsed with phosphate-buffered saline twice and fresh medium was added. At 24 hpi, the cell culture supernatant was collected, and viral titer was measured by plaque assay.
as §4

[5] = tested on: DENV-NS3 protein expression, DENV-1; assay: Western blot of DENV-NS3 protein in DENV-1-infected A549 cells; type: cell-based, Dengue virus; settings: MOI 0.1 and 1.0, 18 hpi
Procedure: Western blotting was performed as described previously ([Hishiki et al., 2014]). Briefly, DENV-1-infected A549 cells were co-cultured with 10 μM hirsutine, 100 μM ribavirin, or 10 μM bromocriptine. Protein samples were separated by SDS-PAGE and transferred to polyvinylidene fluoride blotting membranes (GE Healthcare, Little Chalfont, United Kingdom). Anti-NS3 rabbit polyclonal antibodies (GTX124252; GeneTex, Irvine, CA, United States) and anti-glyceraldehyde-3-phosphate dehydrogenase (GAPDH) mouse monoclonal antibodies (MAB374; Millipore, Billerica, MA, United States) were used as primary antibodies.
A549 cells were infected with DENV-1 at a MOI of 0.1 and 1.0 in the presence of 10 μM hirsutine (Hi), 100 μM ribavirin (Ri), or 10 μM bromocriptine (Br). Cell lysate was collected 18 h post-infection, and DENV-NS3 (top) and GAPDH (bottom) protein expression levels were assessed by Western blot.

[6] = tested on: influenza A virus (subtype H3N2); parameters: method as in Takayama et al., 1997; Tietze and Zhou, 1999; settings: ref Takayama et al., 1997, Tietze and Zhou, 1999; cited from earlier work
[7] = tested on: DGL2 and DGL2-mut DENV-1 replicon; assay: Transient subgenomic reporter replicon assay (Gaussia luciferase); settings: 10 μM, A549 cells
Procedure: A549 cells were cultured in a 24-well plate and transfected with DGL2 and DGL2-mut using X-tremeGENE HP DNA transfection reagent (Roche, Basel, Switzerland); 10 μM of hirsutine was added at baseline. The cell culture medium was collected and replaced with fresh medium containing 10 μM of hirsutine every 24 h. The Gaussia luciferase activity in the culture medium was measured using a microplate reader.
(A) Schematic representation of the replicon system, which uses DGL2 and DGL2-mut. DGL2-mut was inserted in non-replicative mutation into RNA-dependent RNA polymerase (RdRp). CMVp, cytomegalovirus promoter; Gluc, secretory Gaussia luciferase; IRES, internal ribosome entry site; GAA, mutation in the active center for RdRp; and Rib, ribozyme sequence. (B) Replicon plasmids DGL2 and DGL2-mut were transfected to A549 cells in the presence of 10 μM hirsutine. After 24 and 72 h, luciferase activity in the culture supernatant was analyzed. Each data point represents the mean ± standard deviation from triplicate experiments.

For `CC[C@H]1CN2CCc3c([nH]c4ccccc34)[C@H]2C[C@@H]1/C(=C\OC)C(=O)OC` [Hirsutine], the pEC50 (DENV-1 (02-20 strain) [1]) was 5.71, the SI (DENV-1 (02-20 strain) [1]) was greater than 5.3 and the CC50 at 3 day (MTT cytotoxicity assay) was greater than 10000 nM. For the same compound, the virus titer (DENV-1 (02-20 strain) [2]) was “decreased”, the virus titer (DENV-2 (16681 strain)) was “decreased” and the virus titer (DENV-3 (09-59 strain)) was “decreased”. For the same compound, the virus titer (DENV-4 (09-48 strain)) was “decreased”, the “virus titer in culture supernatant, time-of-drug-addition” value (DENV-1 [3]) was “reduced the virus titer significantly up to 12 hpi” and the “virus titer in culture supernatant, time-of-drug-elimination” value (DENV-1 [4]; 2-h treatment) was “did not decrease the virus titer”. For the same compound, the “virus titer in culture supernatant, time-of-drug-elimination” value (DENV-1 [4]; 4-h treatment) was “did decrease”, the “NS3 protein expression levels” value ([5]; 10 μM) was “did not change” and the “EC50 more effective than ribavirin” value [6] was “over 10 fold”. The “Gaussia luciferase activity in culture supernatant” value ([7]; DGL2, 24 h and 72 h post-transfection) was “did not reduce luciferase activity levels” and the “Gaussia luciferase activity in culture supernatant” value ([7]; non-replicate DGL2-mut, 24 h and 72 h post-transfection) was “did not reduce luciferase activity levels”.

Compound `C[C@H]1CC[C@@]2(OC1)O[C@H]1C[C@H]3[C@@H]4CC[C@@H]5C[C@@H](O[C@@H]6O[C@H](CO)[C@H](O)[C@H](O)[C@H]6O[C@@H]6O[C@H](CO)[C@@H](O)[C@H](O)[C@H]6O)CC[C@]5(C)[C@H]4CC[C@]3(C)[C@H]1[C@@H]2C` [Timosaponin-AIII] has a pEC50 (DENV-1 (02-20 strain) [1]) of 5.77, an SI (DENV-1 (02-20 strain) [1]) greater than 5.9 and a CC50 at 3 day (MTT cytotoxicity assay) greater than 10000 nM.

In the case of `CC(C)C[C@H]1C(=O)N2CCC[C@H]2[C@]2(O)O[C@](NC(=O)[C@@H]3C=C4c5cccc6[nH]c(Br)c(c56)C[C@H]4N(C)C3)(C(C)C)C(=O)N12` [bromocriptine], the “NS3 protein expression levels” value ([5]; 10 μM) was “decreased significantly”.

For `NC(=O)c1ncn([C@@H]2O[C@H](CO)[C@@H](O)[C@H]2O)n1` [ribavirin], the “NS3 protein expression levels” value ([5]; 100 μM) was “decreased significantly”.
